Data taken from paper PMC10127203, “Trapoxin A Analogue as a Selective Nanomolar Inhibitor of HDAC11” (ACS Chemical Biology, 2023).

Tests used:
HDAC11 [1] = biological target: T1, HDAC11 (Homo sapiens, UniProt Q96DB2); design: method as in PMID 31264832; details: cited from earlier work
T1 sequence (Q96DB2 1-347): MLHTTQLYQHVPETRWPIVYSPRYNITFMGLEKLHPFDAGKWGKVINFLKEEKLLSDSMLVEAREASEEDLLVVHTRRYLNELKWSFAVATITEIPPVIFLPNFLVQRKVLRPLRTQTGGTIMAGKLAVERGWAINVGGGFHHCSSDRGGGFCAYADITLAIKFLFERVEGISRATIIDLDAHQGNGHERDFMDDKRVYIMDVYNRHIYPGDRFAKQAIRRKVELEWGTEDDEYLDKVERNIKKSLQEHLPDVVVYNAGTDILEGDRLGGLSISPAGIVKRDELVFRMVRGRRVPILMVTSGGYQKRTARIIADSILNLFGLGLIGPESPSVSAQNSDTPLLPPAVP

HDAC11 [2] = biological target: T1, HDAC11; assay: HDAC11 in cell assay: defatty acylation of SHMT2 (Alk14 labeling, Western blot); type: cell-based; design: endogenous in cells; host or cells: HEK293T; details: HEK293T cells, 20 μM, 3 h, 50 μM Alk14
Experimental: We treated HEK293T cells with an alkyne-tagged myristic acid analog, Alk14, along with the inhibitors (TD034, SIS17, or FT895) for 3 h. Click chemistry was performed on cell lysate with Biotin-azide, followed by Streptavidin pulldown. […] HEK293T in a six-well plate at 80% confluency was treated with 50 μM Alk14 and inhibitors at various concentrations. The cells were incubated for 3 h. The cells were harvested and lysed in 200 μL of 4% SDS lysis buffer (50 mM triethanolamine, 150 mM NaCl, 4% SDS, pH 7.4) with a 1:100 protease inhibitor cocktail and 1:1000 nuclease for 15 min. The cell lysates were then diluted with 3.8 mL of HEPES buffer (50 mM HEPES, 150 mM NaCl, 1% NP-40, pH 7.4), and then concentrated using Amicon Ultra-4 (30 kDa cutoff) for 45 min at 4000g. The retained samples were then diluted to 0.5 mL with HEPES buffer, followed by the addition of Biotin-N3 (5 μL, 5 mM in DMF), TBTA (5 μL, 2 mM in DMF), CuSO4 (5 μL, 50 mM in water), and TCEP (5 μL, 50 mM in water). The samples were shaken at 37 °C for 1 h, then diluted with 3 mL of HEPES buffer, and concentrated again using Amicon Ultra-4 (30 kDa cutoff) for 45 min at 4000g. The retained samples were then diluted to 0.5 mL with HEPES buffer, followed by the addition of 20 μg of magnetic streptavidin beads (prewashed with the HEPES buffer). […] The eluants were further analyzed by SDS-PAGE and Western blot for SHMT2.

[3] = system: YAP1 target genes CTGF and CYR61 in A549 cells; assay: mRNA level of YAP1 and YAP1 target genes (CTGF, CYR61) by qRT-PCR in A549 cells; type: cell-based; details: for mRNA levels of YAP1 target genes CTGF and CYR61: 5 and 10 μM, 24 hr
Experimental: (§1) A549 cells were treated with TD034 at 5 and 10 μM for 24 hr. Western blot was used to check for YAP1 protein level. qRT-PCR was used to check for YAP1 downstream genes transcription (CTGF and CYR61). Total RNA was extracted using IBI Isolate Total Extraction Reagent Kit (IB47602). […] of RNA was reverse transcribed using OneScript Plus cDNA Synthesis Kit (ABM G236) according to the manufacturer’s protocol. Real-time PCR was performed using BlasTaq 2X qPCR MasterMix (ABM G892) on a QuantStudio 3 Real-Time PCR System. All qPCR reactions were performed in triplicates. The list of primers is included in the Supporting Information.

[4] = system: YAP1 protein level in A549 cells; assay: YAP1 protein level by Western blot in A549 cells; type: cell-based; details: for YAP1 protein levels: A549 cells, 5 and 10 μM, 24 hr
Experimental: as §1

SIRT2 = biological target: T2, SIRT2 (Homo sapiens, UniProt Q8IXJ6); assay: SIRT2 enzyme activity assay (Ac-H3K9, NAD+, HPLC)
T2 sequence (Q8IXJ6 1-389): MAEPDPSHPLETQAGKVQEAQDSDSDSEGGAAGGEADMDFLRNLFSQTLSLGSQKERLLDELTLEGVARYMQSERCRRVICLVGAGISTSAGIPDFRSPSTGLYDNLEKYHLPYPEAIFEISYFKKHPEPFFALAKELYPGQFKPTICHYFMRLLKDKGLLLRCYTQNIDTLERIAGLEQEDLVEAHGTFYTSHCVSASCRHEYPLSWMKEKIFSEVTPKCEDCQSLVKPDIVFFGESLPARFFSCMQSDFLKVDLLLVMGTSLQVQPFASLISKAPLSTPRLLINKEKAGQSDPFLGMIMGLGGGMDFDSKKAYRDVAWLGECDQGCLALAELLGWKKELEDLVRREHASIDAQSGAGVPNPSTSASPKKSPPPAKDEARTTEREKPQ

HDAC1 = HDAC1 (Homo sapiens, UniProt Q13547); assay: HDAC1 enzyme activity assay (Ac-H3K9, HPLC); details: read-out: HDAC1, % inhibition
Sequence of HDAC1 (Q13547 whole entry): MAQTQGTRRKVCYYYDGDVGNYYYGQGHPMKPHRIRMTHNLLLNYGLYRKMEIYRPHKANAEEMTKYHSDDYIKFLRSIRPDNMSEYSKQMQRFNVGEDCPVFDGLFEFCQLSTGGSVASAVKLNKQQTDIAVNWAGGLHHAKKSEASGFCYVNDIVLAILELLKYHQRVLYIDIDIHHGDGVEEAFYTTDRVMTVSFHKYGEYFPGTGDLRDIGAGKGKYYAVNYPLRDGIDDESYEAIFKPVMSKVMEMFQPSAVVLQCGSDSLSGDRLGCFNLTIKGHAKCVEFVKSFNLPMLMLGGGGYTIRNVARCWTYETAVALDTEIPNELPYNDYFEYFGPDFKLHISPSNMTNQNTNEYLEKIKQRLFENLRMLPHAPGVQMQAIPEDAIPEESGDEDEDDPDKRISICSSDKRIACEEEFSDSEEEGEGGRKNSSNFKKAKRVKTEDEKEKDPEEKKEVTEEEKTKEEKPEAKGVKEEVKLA

[5] = system: α-tubulin, p53, and histone H3 acetylation levels; assay: Acetylation levels of α-tubulin, p53 and histone H3 by Western blot in cells; type: cell-based; details: 3 h of treatment
Excerpt: . As a positive control, we used trichostatin A (TSA), a nonselective HDAC inhibitor against both class I and class IIb HDACs.[25] […]

HDAC4 = HDAC4 (Homo sapiens, UniProt P56524); assay: HDAC4 enzyme activity assay (trifluoroacetyl-H3K9, HPLC); details: read-out: HDAC4, % inhibition
Sequence of HDAC4 (P56524 whole entry): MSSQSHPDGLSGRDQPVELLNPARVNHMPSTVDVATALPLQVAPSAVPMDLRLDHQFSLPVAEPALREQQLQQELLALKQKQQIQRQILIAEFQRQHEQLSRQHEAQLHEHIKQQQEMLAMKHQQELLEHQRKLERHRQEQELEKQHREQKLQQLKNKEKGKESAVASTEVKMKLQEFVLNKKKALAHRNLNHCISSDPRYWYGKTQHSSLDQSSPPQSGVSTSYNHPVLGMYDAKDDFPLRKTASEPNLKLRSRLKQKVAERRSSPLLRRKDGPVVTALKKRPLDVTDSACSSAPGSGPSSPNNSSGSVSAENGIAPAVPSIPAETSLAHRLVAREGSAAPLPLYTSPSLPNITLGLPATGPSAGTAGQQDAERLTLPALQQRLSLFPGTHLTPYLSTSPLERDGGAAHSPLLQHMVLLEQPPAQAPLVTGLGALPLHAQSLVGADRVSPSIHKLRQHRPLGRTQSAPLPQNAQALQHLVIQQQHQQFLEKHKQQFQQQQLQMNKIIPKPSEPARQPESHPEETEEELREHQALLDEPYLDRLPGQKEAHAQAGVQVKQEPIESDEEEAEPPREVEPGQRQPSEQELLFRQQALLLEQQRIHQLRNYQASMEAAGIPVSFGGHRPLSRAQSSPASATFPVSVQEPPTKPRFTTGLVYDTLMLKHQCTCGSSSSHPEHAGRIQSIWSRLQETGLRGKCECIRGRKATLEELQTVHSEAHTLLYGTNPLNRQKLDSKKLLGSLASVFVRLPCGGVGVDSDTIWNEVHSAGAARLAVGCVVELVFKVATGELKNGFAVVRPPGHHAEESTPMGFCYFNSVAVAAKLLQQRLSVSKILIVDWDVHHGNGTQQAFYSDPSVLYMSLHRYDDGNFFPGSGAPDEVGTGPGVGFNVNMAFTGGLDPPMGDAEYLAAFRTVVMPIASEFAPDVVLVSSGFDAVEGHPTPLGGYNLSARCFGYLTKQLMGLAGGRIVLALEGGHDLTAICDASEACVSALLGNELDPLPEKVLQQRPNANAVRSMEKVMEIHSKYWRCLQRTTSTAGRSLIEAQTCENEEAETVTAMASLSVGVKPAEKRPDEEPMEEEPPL

SIRT1 = biological target: T3, SIRT1 (Homo sapiens, UniProt Q96EB6); assay: SIRT1 enzyme activity assay (Ac-H3K9, NAD+, HPLC); details: read-out: SIRT1, % inhibition
T3 sequence (Q96EB6 1-747): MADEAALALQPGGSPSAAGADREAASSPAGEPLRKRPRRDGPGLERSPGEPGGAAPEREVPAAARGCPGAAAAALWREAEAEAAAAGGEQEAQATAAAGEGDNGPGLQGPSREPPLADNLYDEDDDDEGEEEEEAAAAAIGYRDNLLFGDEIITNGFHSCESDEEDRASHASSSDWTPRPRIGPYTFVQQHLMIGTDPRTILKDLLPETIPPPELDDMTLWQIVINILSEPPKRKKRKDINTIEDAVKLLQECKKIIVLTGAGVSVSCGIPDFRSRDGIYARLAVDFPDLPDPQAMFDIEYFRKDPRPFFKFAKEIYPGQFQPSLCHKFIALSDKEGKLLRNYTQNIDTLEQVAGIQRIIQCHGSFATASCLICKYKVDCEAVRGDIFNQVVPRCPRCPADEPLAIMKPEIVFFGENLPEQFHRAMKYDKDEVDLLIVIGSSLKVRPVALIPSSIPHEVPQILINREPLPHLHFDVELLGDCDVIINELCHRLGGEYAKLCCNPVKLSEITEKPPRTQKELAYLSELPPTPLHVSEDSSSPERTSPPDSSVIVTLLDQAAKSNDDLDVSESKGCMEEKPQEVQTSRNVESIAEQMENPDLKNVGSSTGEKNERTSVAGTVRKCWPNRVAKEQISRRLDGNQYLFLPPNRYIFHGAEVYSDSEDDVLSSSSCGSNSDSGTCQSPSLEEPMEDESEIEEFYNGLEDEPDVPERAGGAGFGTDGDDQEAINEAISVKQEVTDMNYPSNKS

HDAC8 = biological target: T4, HDAC8 (Homo sapiens, UniProt Q9BY41); assay: HDAC8 enzyme activity assay (Ac-H3K9, HPLC); details: read-out: HDAC8, % inhibition
T4 sequence (Q9BY41 1-377): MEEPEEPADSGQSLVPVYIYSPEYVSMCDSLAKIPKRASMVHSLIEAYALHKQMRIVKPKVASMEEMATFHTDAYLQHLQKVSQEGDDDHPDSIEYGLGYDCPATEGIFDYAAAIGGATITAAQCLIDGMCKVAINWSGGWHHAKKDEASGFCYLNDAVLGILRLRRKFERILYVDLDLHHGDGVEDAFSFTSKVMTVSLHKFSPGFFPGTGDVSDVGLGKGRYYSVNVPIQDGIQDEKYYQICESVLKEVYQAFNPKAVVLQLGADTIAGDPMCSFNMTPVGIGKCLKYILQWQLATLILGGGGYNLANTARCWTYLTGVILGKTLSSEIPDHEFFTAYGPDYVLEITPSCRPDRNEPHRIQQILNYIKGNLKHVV

HDAC6 = biological target: T5, HDAC6 (Homo sapiens, UniProt Q9UBN7); assay: HDAC6 enzyme activity assay (Ac-H3K9, HPLC); details: read-out: HDAC6, % inhibition
T5 sequence (Q9UBN7 1-1215): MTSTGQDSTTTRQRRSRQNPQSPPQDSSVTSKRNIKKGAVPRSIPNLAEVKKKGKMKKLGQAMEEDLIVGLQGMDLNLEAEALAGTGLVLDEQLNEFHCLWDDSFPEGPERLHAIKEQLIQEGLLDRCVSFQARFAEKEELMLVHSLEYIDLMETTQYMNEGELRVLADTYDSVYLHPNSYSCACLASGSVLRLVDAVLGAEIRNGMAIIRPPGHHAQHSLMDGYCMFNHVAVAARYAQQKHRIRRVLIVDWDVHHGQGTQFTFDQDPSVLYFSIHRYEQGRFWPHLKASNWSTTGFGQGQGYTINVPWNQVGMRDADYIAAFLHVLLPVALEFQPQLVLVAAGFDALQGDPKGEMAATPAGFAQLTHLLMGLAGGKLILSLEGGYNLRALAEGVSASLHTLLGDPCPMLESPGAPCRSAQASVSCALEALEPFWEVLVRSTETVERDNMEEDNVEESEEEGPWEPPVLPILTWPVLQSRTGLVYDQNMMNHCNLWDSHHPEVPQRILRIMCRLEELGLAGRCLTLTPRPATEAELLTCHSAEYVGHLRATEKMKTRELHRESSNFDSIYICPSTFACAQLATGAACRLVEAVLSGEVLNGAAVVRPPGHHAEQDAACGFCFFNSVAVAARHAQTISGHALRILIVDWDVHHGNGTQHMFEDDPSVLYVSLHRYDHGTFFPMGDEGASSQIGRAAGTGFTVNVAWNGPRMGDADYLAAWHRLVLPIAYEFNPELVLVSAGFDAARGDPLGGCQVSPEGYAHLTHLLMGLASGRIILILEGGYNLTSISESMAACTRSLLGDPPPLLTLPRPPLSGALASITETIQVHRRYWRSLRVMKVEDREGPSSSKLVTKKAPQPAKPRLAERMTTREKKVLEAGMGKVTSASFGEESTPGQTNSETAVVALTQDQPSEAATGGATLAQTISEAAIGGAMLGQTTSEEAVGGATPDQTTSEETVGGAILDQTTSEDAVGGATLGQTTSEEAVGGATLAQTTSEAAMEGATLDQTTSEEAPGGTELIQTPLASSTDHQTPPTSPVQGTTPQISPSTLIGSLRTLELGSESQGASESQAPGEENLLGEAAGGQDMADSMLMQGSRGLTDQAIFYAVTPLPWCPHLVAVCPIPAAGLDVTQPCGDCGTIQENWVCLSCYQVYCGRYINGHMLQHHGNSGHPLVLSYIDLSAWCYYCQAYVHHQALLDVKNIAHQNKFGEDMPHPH

[6] = pH 8
HDAC11 [7] = biological target: T1, HDAC11; assay: HDAC11 enzyme activity assay (Myr-H3K9 peptide, HPLC); type: biochemical; design: made in house
Experimental: All quantified measurements were performed in triplicates. Data processing was performed using Graphpad Prism 9.5.0. Repeated measures of one-way ANOVA with Fisher’s LSD test were used to determine the P value. The dose–response data was fitted using a two-step nonlinear regression of the Morrison equation. […] HDACs and SIRTs were expressed and purified as previously described.[13] […] For HDAC1, 6, 8, and SIRT1-2, Ac-H3K9 was used as a substrate. […] The reaction was conducted for 15 min (HDAC11), 30 min (HDAC1, 4, 6, 8), and 5 min (SIRT1-2). Then, 20 μL of 0.2% TFA/acetonitrile was added to quench the reaction. The samples were analyzed by HPLC using a Chromolith HighResolution RP-18 end-capped 100 mm × 4.6 mm column (EMD Millipore). Mobile phase A was 0.1% TFA in water and mobile phase B was 0.1% TFA in acetonitrile. The total flow rate was 1 mL/min, and the gradient was 0% B (2 min), 0–60% B (7 min), 100% B (4 min), and 0% B (2 min). The relative ratio of product/substrate in each sample was compared to control sample (no inhibitor) to determine the inhibition level.

O=C(CCCCCCC(=O)Nc1ccccc1)NO [SAHA]
inhibition of HDAC11 demyristoylation activity in vitro (HDAC11 [1]): cannot efficiently inhibit

CCCCCCCCCCCCCCCCNNC(=O)c1cccs1 [SIS17]
inhibition of HDAC11 demyristoylation activity in vitro (HDAC11 [1]): low micromolar inhibition
fatty acylation level of SHMT2 (HDAC11 [2]): same effect

CCCCCCCCCCC[C@@H]1O[C@H]1C(=O)CCCCC[C@@H]1NC(=O)[C@H]2CCCCN2C(=O)[C@H](Cc2ccccc2)NC(=O)[C@H](Cc2ccccc2)NC1=O [TD034-(R)]
mRNA levels of YAP1 target genes CTGF and CYR61 [3]: did not observe such an effect
YAP1 protein levels [4]: did not observe such an effect

CCCCCCCCCCC[C@H]1O[C@@H]1C(=O)CCCCC[C@@H]1NC(=O)[C@H]2CCCCN2C(=O)[C@H](Cc2ccccc2)NC(=O)[C@H](Cc2ccccc2)NC1=O [TD034]
IC50 (SIRT2): ~25 µM
inhibition at 1 µM (SIRT2; read-out: SIRT2, % inhibition): 9%
inhibition at 10 µM (SIRT2; read-out: SIRT2, % inhibition): 29%
inhibition at 25 µM (SIRT2; read-out: SIRT2, % inhibition): 54%
inhibition at 1 µM (HDAC1): 0%
inhibition at 10 µM (HDAC1): 0%
inhibition at 25 µM (HDAC1): 0%
level of acetylated α-tubulin (HDAC6 and SIRT2 target) [5]: did not have such an effect
levels of acetylated histone H3 and acetylated p53 (class I HDACs and SIRT1 target) [5]: did not have such an effect
inhibition at 1 µM (HDAC4): 0%
inhibition at 10 µM (HDAC4): 0%
inhibition at 25 µM (HDAC4): 0%
inhibition at 1 µM (SIRT1): 0%
inhibition at 10 µM (SIRT1): 0%
inhibition at 25 µM (SIRT1): 0%
YAP1 mRNA level [3]: not affected
mRNA levels of YAP1 target genes CTGF and CYR61 [3]: decrease
inhibition at 1 µM (HDAC8): 0%
inhibition at 10 µM (HDAC8): 0%
inhibition at 25 µM (HDAC8): 0%
inhibition at 1 µM (HDAC6): 0%
inhibition at 10 µM (HDAC6): 0%
inhibition at 25 µM (HDAC6): 0%
YAP1 protein levels [4]: significant reduction
YAP1 protein level ([4]; wild-type (WT) A549 cells): reduced
stability in Tris buffer and DTT [6]: relatively stable

CCCCCCCCCCC1(C(=O)CCCCC[C@@H]2NC(=O)[C@H]3CCCCN3C(=O)[C@H](Cc3ccccc3)NC(=O)[C@H](Cc3ccccc3)NC2=O)CO1 (stereo partly shown) [TD036]
HDAC11 inhibition (in words) (HDAC11 [7]): abolished HDAC11 inhibition

CC(/C=C/C(=O)NO)=C\[C@@H](C)C(=O)c1ccc(N(C)C)cc1 [TSA, trichostatin A, reference compound]
level of acetylated α-tubulin (HDAC6 and SIRT2 target) [5]: elevated level
levels of acetylated histone H3 and acetylated p53 (class I HDACs and SIRT1 target) [5]: increased levels
